Measurements: US20040039031A1, “Novel pharmaceutical compositions having an antidiabetic action, and process for their preparation” (priority 2000, published 2004)

What was measured:
NIDD STZ rats = test: Streptozotocin-induced NIDD diabetic rats, eight-day oral treatment, plasma biological parameters; format: in vivo, male Wistar rats; conditions: for Glycaemia at D29 as percent of D21: values at D21 taken as 100%
Description: 40 male Wistar rats (Charles River, Saint Aubin les Elbeuf, France), with an average weight of 280 g, are used in this experiment. The animals are housed for one week in a standardised animal house, the following parameters of which are controlled: The forty rats are made diabetic by IP administration of 50 mg/kg of streptozotocin dissolved in physiological saline (a single administration). […] For each rat, 100 μl of blood are collected by venepuncture in a caudal vein, onto heparin, at time D0 (before the administration of STZ), at time D21 (21 days after STZ, before the treatments) and at D29 (after eight days of treatment). The samples are immediately centrifuged (10 minutes at 4000 rpm) and the plasma is separated from the blood cells. The samples are frozen until the time of determination of the biological parameters. After thawing the plasma samples, the above parameters are determined by enzymatic methods, using a COBAS automated machine (Roche). The glycaemia is measured by the hexokinase method; the cholesterol by the enzymatic final Randox point method; the triglycerides by the GPO-PAP method; the lactic acid by the lactic dehydrogenase method. The circulating insulin is measured by radioimmunoassay using CEA kits. The efficacy of the treatments is evaluated between […] by a t test adapted to paired series (for each rat, the value at D21 relative to D29 serves as the control).

NIDD rats, of STZ type = test: Earlier study of glibenclamide 0.5 mg/kg daily in NIDD rats of STZ type; format: in vivo; conditions: daily dose of 0.5 mg/kg
[1] = metformin 30 mg/kg/day group, D0 (before STZ)
[2] = metformin 30 mg/kg/day group, D21 (21 days after STZ, before treatment)
[3] = metformin (hydrochloride) 30 mg/kg/day orally in two doses, D29 (after eight days of treatment)
[4] = glibenclamide 1 mg/kg/day group, D0 (before STZ)
[5] = glibenclamide 1 mg/kg/day group, D21 (21 days after STZ, before treatment)
[6] = glibenclamide 1 mg/kg/day orally in two doses, D29 (after eight days of treatment)
[7] = glibenclamide 2 mg/kg/day group, D0 (before STZ)
[8] = glibenclamide 2 mg/kg/day group, D21 (21 days after STZ, before treatment)
[9] = glibenclamide 2 mg/kg/day orally in two doses, D29 (after eight days of treatment)
[10] = glibenclamide higher dose 2 mg/kg/day, D29 vs D21
[11] = glibenclamide low dose 1 mg/kg/day, D29 vs D21

Q: What does the source list for `CN(C)C(=N)N=C(N)N` [Metformin, metformin]?
A: glycaemia at D29 (% of D21) (NIDD STZ rats; Metformin 30 mg/kg/day): 86%; Glycaemia at D29 as percent of D21 (NIDD STZ rats; Metformin 30 mg/kg/day): 86.03 +/− 4.29%; Cholesterol (NIDD STZ rats; [1]): 1.00 +/− 0.07 mM/l; Glycaemia (NIDD STZ rats; [1]): 6.38 +/− 0.23 mM/l; Insulinaemia (NIDD STZ rats; [1]): 12.8 +/− 0.2 μU/ml; Lactates (NIDD STZ rats; [1]): 2.47 +/− 0.15 mM/l; Triglycerides (NIDD STZ rats; [1]): 0.96 +/− 0.12 mM/l; Cholesterol (NIDD STZ rats; [2]): 1.57 +/− 0.08 mM/l; Glycaemia (NIDD STZ rats; [2]): 14.41 +/− 0.36 mM/l; Lactates (NIDD STZ rats; [2]): 2.53 +/− 0.09 mM/l; Triglycerides (NIDD STZ rats; [2]): 1.05 +/− 0.03 mM/l; Effect on lactates (NIDD STZ rats; metformin 30 mg/kg/day, eight days): tendency to increase; Cholesterol (NIDD STZ rats; [3]): 1.48 +/− 0.06 mM/l; Glycaemia (NIDD STZ rats; [3]): **12.35 +/− 0.49 mM/l; Insulinaemia (NIDD STZ rats; [3]): 17.3 +/− 0.7 μU/ml; Lactates (NIDD STZ rats; [3]): *2.70 +/− 0.11 mM/l; Triglycerides (NIDD STZ rats; [3]): 0.96 +/− 0.05 mM/l; Decrease in glycaemia (NIDD STZ rats; metformin alone 30 mg/kg/day, D29 vs D21): 13.7%

Q: For glibenclamide, which “Glycaemia at D29 as percent of D21” value (NIDD STZ rats; Glibenclamide 2 mg/kg/day) is on record?
A: Its value is 93.49 +/− 1.15%.

Q: What about the Cholesterol (NIDD STZ rats; [4]) of the same compound?
A: Its Cholesterol is 1.03 +/− 0.04 mM/l.

Q: And the Glycaemia (NIDD STZ rats; [4])?
A: Its Glycaemia is 6.39 +/− 0.17 mM/l.

Q: And the Insulinaemia (NIDD STZ rats; [4])?
A: Its Insulinaemia is 12.8 +/− 0.8 μU/ml.

Q: What about the Lactates (NIDD STZ rats; [4]) of the same compound?
A: The Lactates was 2.19 +/− 0.07 mM/l.

Q: What about the Triglycerides (NIDD STZ rats; [4]) of the same compound?
A: The Triglycerides was 0.87 +/− 0.05 mM/l.

Q: And the Cholesterol (NIDD STZ rats; [5])?
A: The Cholesterol was 1.65 +/− 0.08 mM/l.

Q: And the Glycaemia (NIDD STZ rats; [5])?
A: The Glycaemia was 14.22 +/− 0.65 mM/l.

Q: And the Insulinaemia (NIDD STZ rats; [5])?
A: Its Insulinaemia is 16.7 +/− 0.8 μU/ml.

Q: And the Lactates (NIDD STZ rats; [5])?
A: Its Lactates is 2.59 +/− 0.10 mM/l.

Q: And the Triglycerides (NIDD STZ rats; [5])?
A: Its Triglycerides is 1.04 +/− 0.10 mM/l.

Q: What about the Cholesterol (NIDD STZ rats; [6]) of the same compound?
A: Its Cholesterol is 1.42 +/− 0.08 mM/l.

Q: And the Glycaemia (NIDD STZ rats; [6])?
A: The Glycaemia was 14.66 +/− 0.47 mM/l.

Q: What about the Insulinaemia (NIDD STZ rats; [6]) of the same compound?
A: The Insulinaemia was “**1.92 +/− 0.8 μU/ml”.

Q: What about the Lactates (NIDD STZ rats; [6]) of the same compound?
A: Its Lactates is “**1.33 +/− 0.15 mM/l”.

Q: What about the Triglycerides (NIDD STZ rats; [6]) of the same compound?
A: Its Triglycerides is 1.04 +/− 0.10 mM/l.

Q: What about the Cholesterol (NIDD STZ rats; [7]) of the same compound?
A: Its Cholesterol is 1.04 +/− 0.02 mM/l.

Q: And the Glycaemia (NIDD STZ rats; [7])?
A: The Glycaemia was 6.49 +/− 0.13 mM/l.

Q: What about the Insulinaemia (NIDD STZ rats; [7]) of the same compound?
A: Its Insulinaemia is 12.7 +/− 0.6 μU/ml.

Q: What about the Lactates (NIDD STZ rats; [7]) of the same compound?
A: The Lactates was 2.33 +/− 0.12 mM/l.

Q: And the Triglycerides (NIDD STZ rats; [7])?
A: Its Triglycerides is 0.88 +/− 0.06 mM/l.

Q: And the Cholesterol (NIDD STZ rats; [8])?
A: The Cholesterol was 1.49 +/− 0.04 mM/l.

Q: What about the Glycaemia (NIDD STZ rats; [8]) of the same compound?
A: Its Glycaemia is 14.66 +/− 0.73 mM/l.

Q: What about the Insulinaemia (NIDD STZ rats; [8]) of the same compound?
A: Its Insulinaemia is 17.0 +/− 1.0 μU/ml.

Q: And the Lactates (NIDD STZ rats; [8])?
A: Its Lactates is 2.67 +/− 0.17 mM/l.

Q: And the Triglycerides (NIDD STZ rats; [8])?
A: Its Triglycerides is 1.01 +/− 0.05 mM/l.

Q: And the Cholesterol (NIDD STZ rats; [9])?
A: Its Cholesterol is 1.52 +/− 0.06 mM/l.

Q: And the Glycaemia (NIDD STZ rats; [9])?
A: The Glycaemia was “**13.70 +/− 0.66 mM/l”.

Q: What about the Insulinaemia (NIDD STZ rats; [9]) of the same compound?
A: The Insulinaemia was “**21.0 +/− 1.4 μU/ml”.

Q: And the Lactates (NIDD STZ rats; [9])?
A: Its Lactates is “**1.38 +/− 0.13 mM/l”.

Q: What about the Triglycerides (NIDD STZ rats; [9]) of the same compound?
A: The Triglycerides was 0.93 +/− 0.04 mM/l.

Q: What about the Glycaemia (NIDD STZ rats; glibenclamide 2 mg/kg/day orally in two doses, D29 (after eight days of treatment), listed as glibenclamide) of the same compound?
A: The Glycaemia was 13.70 +/− 0.66 mM/l.

Q: What about the Decrease in glycaemia (NIDD STZ rats; glibenclamide alone 2 mg/kg/day, D29 vs D21) of the same compound?
A: Its Decrease in glycaemia is 6.51%.

Q: What about the “Effect on insulinaemia” value (NIDD STZ rats; [10]) of the same compound?
A: Its value is “still higher on average”.

Q: And the “Effect on lactate levels” value (NIDD STZ rats; [10])?
A: The value was “significantly reduced”.

Q: What about the “Effect on glycaemia” value (NIDD STZ rats; glibenclamide higher dose 2 mg/kg/day, D29 vs D21, paired t test) of the same compound?
A: Its value is “significantly decreases”.

Q: What about the “Effect on glycaemia” value (NIDD STZ rats; [11]) of the same compound?
A: The value was “does not modify”.

Q: What about the “Effect on insulinaemia” value (NIDD STZ rats; [11]) of the same compound?
A: The value was “significant increase”.

Q: What about the “Effect on level of circulating lactates” value (NIDD STZ rats; [11]) of the same compound?
A: Its value is “decrease”.

Q: What about the Minimum active dose (NIDD STZ rats; orally in two doses, eight days, NIDD STZ rats) of the same compound?
A: Its Minimum active dose is 2 mg/kg/day.

Q: And the “Activity of daily dose” value (NIDD rats, of STZ type)?
A: Its value is “inactive”.
